Each compound was assayed on swine adipose tissue (assay: inhibition of lipogenesis (lipid synthesis from radioactive glucose) in slices of swine adipose tissue). Conditions: 100 micrograms per milliliter test compound; 37° C., 2 hours; glucose-U^14 C; 300 microunits of insulin; 5% DMSO; triplicate.
Format: cell-based
From the text: The manner in which they cause this effect is not known with certainty; it is believed that they interfere with the synthesis of fatty acids in the tissues. Their effectiveness for this purpose has been ascertained by immersing samples of swine adipose tissue in a liquid medium containing radioactive glucose and the test chemical for a period of time, then isolating the lipid from the treated tissue and determining the up-take of the radioactive carbon by means of scintillation counting techniques. These tests were conducted in swine adipose tissue because in swine, the primary site of lipogenesis--i.e., fatty acid synthesis--appears to be adipose tissue.
Described in more detail, the tests were conducted according to the following general procedure:
150 milligrams of slices of swine adipose tissue were incubated at 37° C. for 2 hours with shaking in 3 milliliters of Krebs-Ringer bicarbonate solution containing one-half of the normal calcium ion concentration, 60 micromoles of glucose, 0.5 micro-Curie of glucose-U^14 C, and 300 microunits of insulin, and 5% dimethyl sulfoxide (DMSO). The test compound was added as a solution or suspension in DMSO and was present as a concentration of 100 micrograms per milliliter of incubation mixture.
The incubation was terminated by addition of 0.25 milliliter of 1 N sulfuric acid. The resulting mixture was extracted with a total of 25 milliliters of chloroform:methanol (2:1, v/v). The extracts were washed according to Folch et al. (J. Biol. Chem., 226, 497-509, (1957)), air dried, and counted in a liquid scintillation counter with 15 milliliters of counting fluid (two parts toluene containing 0.4% w/v New England Nuclear Omnifluor: 1 part Triton X-100). The tests were conducted in triplicate and were accompanied by control tests in which all ingredients,proportions and conditions were the same except that no test compound was included. From the data obtained were calculated the percent inhibition of lipid synthesis by the test compound. The data obtained are reported as the percent inhibition of lipogenesis compared to the results obtained in the control tests wherein only the test compound was omitted.

Compound	Percent Inhibition (of lipogenesis compared to control tests) [%]
C=CCNC(=O)C1Cc2cc(-c3ccccc3)ccc2O1 (stereo not shown) [Compound 1, 2,3-dihydro-5-phenyl-N-(2-propenyl)-2-benzofurancarboxamide]	59
C=CCNC(=O)C1Cc2cc(C(C)CC)ccc2O1 (stereo not shown) [Compound 2]	66
C=CCNC(=O)C1Cc2cc(C3CCCCC3)ccc2O1 (stereo not shown) [Compound 3]	43
C=CCNC(=O)C1Cc2cc(Cc3ccccc3)ccc2O1 (stereo not shown) [Compound 4]	64
C=CCNC(=O)C1Cc2c(Oc3ccccc3)cccc2O1 (stereo not shown) [Compound 5]	77
C=CCNC(=O)C1Cc2cc(-c3ccc(C(C)O)cc3)ccc2O1 (stereo not shown) [Compound 6, 2,3-Dihydro-5-(4-(1-hydroxyethyl)phenyl)-N-(2-propenyl)-2-benzofurancarboxamide]	40
C=CCNC(=O)C1Cc2cc(-c3ccc(NC(C)=O)cc3)ccc2O1 (stereo not shown) [Compound 7, 5-(4-(Acetylamino)phenyl)-2,3-dihydro-N-(2-propenyl)-2-benzofurancarboxamide]	76

— patent US4205080A, “2,3-Dihydro benzofuran carboxamides” (Shell Oil Company, priority 1979, dated 1980)
